According to ChEMBL document CHEMBL4715809, “Design, synthesis, and biological activity of 4-(imidazo[1,2-b]pyridazin-3-yl)-1H-pyrazol-1-yl-phenylbenzamide derivatives as BCR-ABL kinase inhibitors” (Bioorg Med Chem Lett, 2016):

Experiments:
Bcr/Abl fusion protein = Bcr/Abl fusion protein (Homo sapiens, UniProt P00519); assay: (§1) Inhibition of BCR (unknown origin)/recombinant human N-terminal His-tagged ABL1 (27 to end residues) expressed in baculovirus infected Sf9 cells using ABLtide as substrate preincubated for 30 mins followed by substrate addition and measured after 1 hr in presence of ATP by kinase-Glo luminescence assay
K562 = assay: Antiproliferative activity against human K562 cells assessed as reduction in cell viability after 24 hrs by CCK8 assay; format: functional, cell-based; conditions: K562, 24 h
U-937 = assay: Antiproliferative activity against human U937 cells assessed as reduction in cell viability after 24 hrs by CCK8 assay; format: functional, cell-based; conditions: U-937, 24 h
[1] = Cytotoxicity against human 293T cells assessed as reduction in cell viability after 24 hrs by CCK8 assay; format: cell-based; conditions: 293T (HEK-293T) cells
[2] = biological target: Bcr/Abl fusion protein (Homo sapiens) (UniProt P00519+P11274); assay: as §1, with “Potency index, ratio of staurosporine IC50 to test compound IC50 for inhibition” for “Inhibition”; conditions: time 90.0 min
Sequence of Bcr/Abl fusion protein (Homo sapiens) (P00519 whole entry, looked up, the tested form may be a part): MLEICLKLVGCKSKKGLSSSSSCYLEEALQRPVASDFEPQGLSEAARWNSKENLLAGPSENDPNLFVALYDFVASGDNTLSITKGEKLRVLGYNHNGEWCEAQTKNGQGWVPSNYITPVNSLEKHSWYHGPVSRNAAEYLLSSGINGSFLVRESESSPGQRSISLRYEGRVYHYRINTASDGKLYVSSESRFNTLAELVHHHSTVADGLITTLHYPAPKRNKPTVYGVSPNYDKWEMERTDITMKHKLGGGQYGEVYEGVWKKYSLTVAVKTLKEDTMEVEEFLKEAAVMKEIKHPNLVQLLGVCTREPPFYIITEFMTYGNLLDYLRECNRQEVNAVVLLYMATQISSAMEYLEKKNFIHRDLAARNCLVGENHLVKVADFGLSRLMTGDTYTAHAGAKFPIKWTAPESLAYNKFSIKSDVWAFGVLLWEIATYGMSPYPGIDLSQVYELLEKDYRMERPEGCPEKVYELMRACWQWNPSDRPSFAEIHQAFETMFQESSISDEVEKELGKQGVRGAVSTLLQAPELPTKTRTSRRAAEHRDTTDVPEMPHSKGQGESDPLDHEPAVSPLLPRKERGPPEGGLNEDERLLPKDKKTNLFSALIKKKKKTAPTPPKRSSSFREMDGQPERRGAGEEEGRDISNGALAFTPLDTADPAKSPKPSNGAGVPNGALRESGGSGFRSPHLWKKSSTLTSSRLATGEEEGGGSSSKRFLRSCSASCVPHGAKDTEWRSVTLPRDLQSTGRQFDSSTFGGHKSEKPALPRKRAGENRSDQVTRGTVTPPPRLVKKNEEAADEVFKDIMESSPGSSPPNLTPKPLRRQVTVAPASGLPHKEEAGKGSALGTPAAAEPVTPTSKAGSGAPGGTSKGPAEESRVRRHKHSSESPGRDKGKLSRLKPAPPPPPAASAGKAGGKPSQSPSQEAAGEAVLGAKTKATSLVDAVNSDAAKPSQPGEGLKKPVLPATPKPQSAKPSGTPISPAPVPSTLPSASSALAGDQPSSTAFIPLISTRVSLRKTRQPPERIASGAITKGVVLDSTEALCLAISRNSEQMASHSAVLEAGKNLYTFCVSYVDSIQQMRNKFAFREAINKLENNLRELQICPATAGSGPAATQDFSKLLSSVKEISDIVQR
Sequence of Bcr/Abl fusion protein (Homo sapiens) (P11274 whole entry, looked up, the tested form may be a part): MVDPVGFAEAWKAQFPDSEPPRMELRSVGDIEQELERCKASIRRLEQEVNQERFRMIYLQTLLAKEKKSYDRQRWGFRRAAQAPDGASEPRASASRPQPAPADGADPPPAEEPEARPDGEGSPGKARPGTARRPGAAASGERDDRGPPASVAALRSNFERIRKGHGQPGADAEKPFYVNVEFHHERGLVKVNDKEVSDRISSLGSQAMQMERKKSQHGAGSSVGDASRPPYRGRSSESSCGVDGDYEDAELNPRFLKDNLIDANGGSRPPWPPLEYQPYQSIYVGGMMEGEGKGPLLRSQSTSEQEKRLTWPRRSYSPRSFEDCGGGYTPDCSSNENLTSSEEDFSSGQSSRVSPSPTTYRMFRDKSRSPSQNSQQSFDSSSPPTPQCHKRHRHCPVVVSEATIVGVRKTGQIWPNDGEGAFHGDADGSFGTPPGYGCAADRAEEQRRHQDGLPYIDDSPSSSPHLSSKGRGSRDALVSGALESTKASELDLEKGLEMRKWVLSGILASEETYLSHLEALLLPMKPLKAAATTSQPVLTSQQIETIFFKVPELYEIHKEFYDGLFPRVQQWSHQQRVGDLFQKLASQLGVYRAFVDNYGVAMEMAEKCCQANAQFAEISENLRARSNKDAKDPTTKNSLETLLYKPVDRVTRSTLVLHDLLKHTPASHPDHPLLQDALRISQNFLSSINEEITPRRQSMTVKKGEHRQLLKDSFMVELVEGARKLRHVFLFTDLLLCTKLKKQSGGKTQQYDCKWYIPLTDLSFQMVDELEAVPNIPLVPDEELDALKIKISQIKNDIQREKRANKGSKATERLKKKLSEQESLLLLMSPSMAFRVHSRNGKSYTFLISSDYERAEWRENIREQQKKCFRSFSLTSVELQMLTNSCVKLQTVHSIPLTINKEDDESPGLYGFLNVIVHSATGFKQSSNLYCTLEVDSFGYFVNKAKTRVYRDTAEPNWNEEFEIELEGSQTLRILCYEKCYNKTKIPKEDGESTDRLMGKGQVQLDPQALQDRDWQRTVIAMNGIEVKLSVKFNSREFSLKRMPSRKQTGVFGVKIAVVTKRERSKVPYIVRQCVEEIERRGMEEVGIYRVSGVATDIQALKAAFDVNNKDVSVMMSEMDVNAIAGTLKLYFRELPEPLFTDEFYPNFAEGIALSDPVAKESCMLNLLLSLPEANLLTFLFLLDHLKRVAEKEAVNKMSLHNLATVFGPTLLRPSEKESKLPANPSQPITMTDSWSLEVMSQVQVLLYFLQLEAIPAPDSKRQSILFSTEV

Sequence of Bcr/Abl fusion protein (P00519 whole entry, the tested form may be a part): as the sequence (P00519 whole entry, looked up, the tested form may be a part) above
Sequence of Bcr/Abl fusion protein (P11274 whole entry, further chain, the tested form may be a part): as the sequence (P11274 whole entry, looked up, the tested form may be a part) above

| SMILES | IC50 (Bcr/Abl fusion protein) [µM] | IC50 (K562) [µM] | IC50 (U-937) [µM] | CC50 at 24 h [1] [µM] | Ratio IC50 [2] |
| --- | --- | --- | --- | --- | --- |
| Cc1ccc(NC(=O)c2ccc(CN3CCOCC3)cc2)cc1-n1cc(-c2cnc3ccnn3c2)cn1 | 2.44 | – | – | – | – |
| Cc1ccc(NC(=O)c2ccc(CN3CCN(C)CC3)cc2)cc1Nc1nccc(-c2cccnc2)n1 [IMATINIB] | – | 7.38 | 12.4 | 27.5 | – |
| Cc1ccc(NC(=O)c2ccc(CN3CCN(C)CC3)cc2)cc1-n1cc(-c2cnc3cccnn23)cn1 | 0.0261 | < 0.002 | 10.8 | 23.8 | – |
| CCc1ccc(C(=O)Nc2ccc(C)c(-n3cc(-c4cnc5cccnn45)cn3)c2)cc1 | 0.0194 | 7.54 | > 20 | > 80 | – |
| COc1ccc(C(=O)Nc2ccc(C)c(-n3cc(-c4cnc5ccnn5c4)cn3)c2)cc1 | 0.767 | 19.7 | 16.3 | > 80 | – |
| Cc1ccc(NC(=O)c2cccc(Cl)c2)cc1-n1cc(-c2cnc3cccnn23)cn1 | 0.0222 | 5.08 | > 20 | > 80 | – |
| Cc1ccc(NC(=O)c2ccc(C(F)(F)F)cc2)cc1-n1cc(-c2cnc3cccnn23)cn1 | 0.0741 | 10.5 | > 20 | > 80 | – |
| Cc1ccc(NC(=O)c2ccc(CN3CCOCC3)cc2)cc1-n1cc(-c2cnc3cccnn23)cn1 | 0.109 | 8.25 | 12.4 | 9.04 | – |
| Cc1ccc(NC(=O)c2ccc(CN3CCCN(C)CC3)cc2)cc1-n1cc(-c2cnc3ccnn3c2)cn1 | 0.621 | 5.88 | 6.83 | 20.5 | – |
| Cc1ccc(NC(=O)c2cccc(C(F)(F)F)c2)cc1-n1cc(-c2cnc3cccnn23)cn1 | 0.0085 | < 0.002 | 13.7 | 40.3 | 14.3 |
| Cc1ccc(NC(=O)c2ccc(C(F)(F)F)cc2)cc1-n1cc(-c2cnc3ccnn3c2)cn1 | 0.804 | 6.93 | 13.1 | 43.2 | – |
| Cc1ccc(NC(=O)c2ccc(F)cc2)cc1-n1cc(-c2cnc3cccnn23)cn1 | 0.0809 | 12.4 | > 20 | > 80 | – |
